From PubChem BioAssay AID1259407 (Chemical Carcinogenesis Research Information System (CCRIS), 2018) come the findings set out here.

The subject of this series is CCRIS mutagenicity, Ames/micronucleus/aberration tests. Kind of series: CCRIS mutagenicity studies.
The mark [1] stands for this setting: Test System: AMES SALMONELLA TYPHIMURIUM, Strain/Indicator: TA98, Metabolic Activation: NONE, Method: STANDARD PLATE.
[2] abbreviates: Test System: AMES SALMONELLA TYPHIMURIUM, Strain/Indicator: TA98, Metabolic Activation: RAT, LIVER, S-9, AROCLOR 1254, Method: STANDARD PLATE.
[3] abbreviates: Test System: AMES SALMONELLA TYPHIMURIUM, Strain/Indicator: TA100, Metabolic Activation: NONE, Method: STANDARD PLATE.
The mark [4] stands for this setting: Test System: AMES SALMONELLA TYPHIMURIUM, Strain/Indicator: TA100, Metabolic Activation: RAT, LIVER, S-9, AROCLOR 1254, Method: STANDARD PLATE.
The mark [5] stands for this setting: Test System: AMES SALMONELLA TYPHIMURIUM, Strain/Indicator: TA98, Metabolic Activation: NONE, Method: PREINCUBATION

Calls of active or inactive are those of the source. The rule behind the calls is not given here.

Take `N#CCCN`: the mutagenic call reads like this: (Test System: AMES SALMONELLA TYPHIMURIUM, Strain/Indicator: TA98, Metabolic Activation: HAMSTER, LIVER, S-9, AROCLOR 1254, Method: STANDARD PLATE) “inactive; negative”; under setting [1], “inactive; negative”; under setting [2], “inactive; negative”; (Test System: AMES SALMONELLA TYPHIMURIUM, Strain/Indicator: TA100, Metabolic Activation: HAMSTER, LIVER, S-9, AROCLOR 1254, Method: STANDARD PLATE) “inactive; negative”; under setting [3], “inactive; negative”; under setting [4], “inactive; negative”. Moreover, the mutagenic call (Test System: AMES SALMONELLA TYPHIMURIUM, Strain/Indicator: TA1535, Metabolic Activation: HAMSTER, LIVER, S-9, AROCLOR 1254, Method: STANDARD PLATE) is “inactive; negative”; the mutagenic call (Test System: AMES SALMONELLA TYPHIMURIUM, Strain/Indicator: TA1535, Metabolic Activation: NONE, Method: STANDARD PLATE) is “inactive; negative”; the mutagenic call (Test System: AMES SALMONELLA TYPHIMURIUM, Strain/Indicator: TA1535, Metabolic Activation: RAT, LIVER, S-9, AROCLOR 1254, Method: STANDARD PLATE) was “inactive; negative”; the mutagenic call (Test System: AMES SALMONELLA TYPHIMURIUM, Strain/Indicator: TA1537, Metabolic Activation: HAMSTER, LIVER, S-9, AROCLOR 1254, Method: STANDARD PLATE) is “inactive; negative”; the mutagenic call (Test System: AMES SALMONELLA TYPHIMURIUM, Strain/Indicator: TA1537, Metabolic Activation: NONE, Method: STANDARD PLATE) is “inactive; negative”; the mutagenic call (Test System: AMES SALMONELLA TYPHIMURIUM, Strain/Indicator: TA1537, Metabolic Activation: RAT, LIVER, S-9, AROCLOR 1254, Method: STANDARD PLATE) is “inactive; negative”. Besides, the mutagenic call (Test System: AMES SALMONELLA TYPHIMURIUM, Strain/Indicator: TA1538, Metabolic Activation: HAMSTER, LIVER, S-9, AROCLOR 1254, Method: STANDARD PLATE) was “inactive; negative”; the mutagenic call (Test System: AMES SALMONELLA TYPHIMURIUM, Strain/Indicator: TA1538, Metabolic Activation: NONE, Method: STANDARD PLATE) was “inactive; negative”; the mutagenic call (Test System: AMES SALMONELLA TYPHIMURIUM, Strain/Indicator: TA1538, Metabolic Activation: RAT, LIVER, S-9, AROCLOR 1254, Method: STANDARD PLATE) is “inactive; negative”; the mutagenic call (Test System: Mouse lymphoma, Strain/Indicator: L5178Y (tk+/tk-), Metabolic Activation: None, Method: Suspension/plate) is “inactive; inconclusive (previous evaluation negative)”; the mutagenic call (Test System: Mouse lymphoma, Strain/Indicator: L5178Y (tk+/tk-), Metabolic Activation: Rat, Liver, S-9, Aroclor 1254, Method: Suspension/plate) was “inactive; negative”.
Regarding `CCOCC=O`, the mutagenic call (Test System: AMES SALMONELLA TYPHIMURIUM, Strain/Indicator: TA97A, Metabolic Activation: NONE, Method: STANDARD PLATE) was “inactive; negative”; the mutagenic call (Test System: AMES SALMONELLA TYPHIMURIUM, Strain/Indicator: TA97A, Metabolic Activation: RAT, LIVER, S-9, AROCLOR 1254, Method: STANDARD PLATE) is “inactive; negative”; the mutagenic call under setting [1] is “inactive; negative”; the mutagenic call under setting [2] was “inactive; negative”; the mutagenic call under setting [3] is “inactive; negative”; the mutagenic call under setting [4] was “inactive; negative”. Besides, the mutagenic call by setting is: (Test System: AMES SALMONELLA TYPHIMURIUM, Strain/Indicator: TA102, Metabolic Activation: NONE, Method: STANDARD PLATE) “inactive; negative”; (Test System: AMES SALMONELLA TYPHIMURIUM, Strain/Indicator: TA102, Metabolic Activation: RAT, LIVER, S-9, AROCLOR 1254, Method: STANDARD PLATE) “inactive; negative”.
For `CC(C)c1ccc(/C=C/c2ccc([N+](=O)[O-])cc2)cc1`, the mutagenic call under setting [1] is “inactive; negative”; the mutagenic call (Test System: AMES SALMONELLA TYPHIMURIUM, Strain/Indicator: TA98, Metabolic Activation: RAT, LIVER, S-9, AROCLOR, Method: STANDARD PLATE) is “active; positive”; the mutagenic call under setting [3] is “inactive; negative”; the mutagenic call (Test System: AMES SALMONELLA TYPHIMURIUM, Strain/Indicator: TA100, Metabolic Activation: RAT, LIVER, S-9, AROCLOR, Method: STANDARD PLATE) was “active; positive”.
On to `O[C@@H]1c2ccc3cc4ccccc4cc3c2[C@@H]2OC2[C@@H]1O` (stereo partly drawn), for which, for the setting “Test System: CHINESE HAMSTER V-79, Strain/Indicator: V-79/8-AZAGUANINE, Metabolic Activation: NONE, Method: STANDARD PLATE”, the mutagenic call was “active; positive”.
Turning to `Clc1nncc2ncccc12`, the mutagenic call under setting [5] was “inactive; negative”; the mutagenic call (Test System: AMES SALMONELLA TYPHIMURIUM, Strain/Indicator: TA98, Metabolic Activation: RAT, LIVER, S-9, PCB, Method: PREINCUBATION) is “inactive; negative”; the mutagenic call (Test System: AMES SALMONELLA TYPHIMURIUM, Strain/Indicator: TA100, Metabolic Activation: NONE, Method: PREINCUBATION) was “inactive; negative”; the mutagenic call (Test System: AMES SALMONELLA TYPHIMURIUM, Strain/Indicator: TA100, Metabolic Activation: RAT, LIVER, S-9, PCB, Method: PREINCUBATION) was “inactive; negative”.
In the case of `C[C@H](CCC(=O)O)[C@H]1CC[C@H]2[C@@H]3CC[C@@H]4CC(=O)CC[C@]4(C)[C@H]3CC(=O)[C@]12C`, the mutagenic call reads like this: (Test System: AMES SALMONELLA TYPHIMURIUM, Strain/Indicator: TA98, Metabolic Activation: NONE, Method: FLUCTUATION TEST) “inactive; negative”; under setting [5], “inactive; negative”; (Test System: AMES SALMONELLA TYPHIMURIUM, Strain/Indicator: TA100, Metabolic Activation: NONE, Method: FLUCTUATION TEST) “inactive; negative”.
Consider `Cc1ccc2c(c1)-c1cc3ccccc3c3cc4ccccc4c-2c13`, for which, for the setting “Test System: AMES SALMONELLA TYPHIMURIUM, Strain/Indicator: TA100, Metabolic Activation: RAT, LIVER, S-9, 3-METHYLCHOLANTHRENE, Method: STANDARD PLATE”, the mutagenic call is “active; positive”.
As to `[O-][Cl+]O`, the mutagenic call was “inactive; negative; significant increase at 150 mg/kg” (End Point: IN VIVO MICRONUCLEUS, Test System: BONE MARROW POLYCHROMATIC ERYTHROCYTES, Species: MOUSE, Strain/Sex: DDY/MALE, Route: ORAL); “inactive; negative” (Test System: AMES SALMONELLA TYPHIMURIUM, Strain/Indicator: TA97, Metabolic Activation: NONE, Method: PREINCUBATION); “inactive; negative” (Test System: AMES SALMONELLA TYPHIMURIUM, Strain/Indicator: TA97, Metabolic Activation: RAT, LIVER, S-9, AROCLOR 1254, Method: PREINCUBATION); “inactive; negative” (Test System: AMES SALMONELLA TYPHIMURIUM, Strain/Indicator: TA102, Metabolic Activation: NONE, Method: PREINCUBATION); “inactive; negative” (Test System: AMES SALMONELLA TYPHIMURIUM, Strain/Indicator: TA102, Metabolic Activation: RAT, LIVER, S-9, AROCLOR 1254, Method: PREINCUBATION).
